Measured values from ChEMBL document CHEMBL4477179, “Wewakazole B, a Cytotoxic Cyanobactin from the Cyanobacterium Moorea producens Collected in the Red Sea” (J Nat Prod, 2016).
Calls of active or inactive are those of the source. No cut-off for these calls is given here. *1 amine or outer side, *2 acyl side, *3 side chain or, on linkers, in order; H or OH if unused. Where a SMILES comes first, the peptide text is derived from it. [ ]: non-standard residue; d: D form. X1 = Cc1oc([C@H](Cc2ccccc2)N[*:1])nc1C(=O)[*:2]; X3 = CC[C@H](C)[C@H](N[*:1])c1nc(C(=O)[*:2])co1; X2 = Cc1oc([C@H](C)N[*:1])nc1C(=O)[*:2]

What was measured:
[1] = Metal chelating activity assessed as Fe3+ complex formation measured after 45 mins by CAS assay; assay type: functional
NCI-H460 = test: Cytotoxicity against human NCI-H460 cells measured after 72 hrs by MTT assay; assay type: functional, cell-based; conditions: NCI-H460, 72 h
MCF7 = test: Cytotoxicity against human MCF7 cells measured after 72 hrs by MTT assay; assay type: functional, cell-based; conditions: MCF7, 72 h
[2] = Metal chelating activity assessed as Fe3+ complex formation at 89 uM measured after 45 mins by CAS assay; assay type: functional

Compound	IC50 [1] [nM]	IC50 (NCI-H460) [nM]	IC50 (MCF7) [nM]	Activity [2]
CC(=O)N(O)CCCCCNC(=O)CCC(=O)N(O)CCCCCNC(=O)CCC(=O)N(O)CCCCCN [DEFEROXAMINE]	5100			
CC[C@H](C)[C@@H]1NC(=O)[C@@H]2CCCN2C(=O)[C@H](Cc2ccccc2)NC(=O)c2nc(oc2C)[C@H](C)NC(=O)c2nc(oc2C)[C@H](Cc2ccccc2)NC(=O)CNC(=O)[C@@H]2CCCN2C(=O)[C@@H]2CCCN2C(=O)[C@H](C)NC(=O)c2coc1n2 (cyclo(APPG[X1][X2]FP[X3]))		1000	580	inactive
